Assay results: article PMC3135650 (Molecular pharmaceutics, 2009)
Entries after “also recorded” stand apart in the source; their conditions may differ.

How the values were obtained:
[1] = test system: Bcrp; settings: cited from earlier work
[2] = molecular target: T1, Bcrp (Rattus norvegicus, UniProt Q80W57); experiment: Biliary excretion; type: in vitro ADME; settings: 10 min; for Nitrofurantoin BEI, % of control (Ad-siNT) / Nitrofurantoin in vitro Clbiliary, % of control (Ad-siNT): 5 µM nitrofurantoin
T1 sequence (Q80W57 1-657): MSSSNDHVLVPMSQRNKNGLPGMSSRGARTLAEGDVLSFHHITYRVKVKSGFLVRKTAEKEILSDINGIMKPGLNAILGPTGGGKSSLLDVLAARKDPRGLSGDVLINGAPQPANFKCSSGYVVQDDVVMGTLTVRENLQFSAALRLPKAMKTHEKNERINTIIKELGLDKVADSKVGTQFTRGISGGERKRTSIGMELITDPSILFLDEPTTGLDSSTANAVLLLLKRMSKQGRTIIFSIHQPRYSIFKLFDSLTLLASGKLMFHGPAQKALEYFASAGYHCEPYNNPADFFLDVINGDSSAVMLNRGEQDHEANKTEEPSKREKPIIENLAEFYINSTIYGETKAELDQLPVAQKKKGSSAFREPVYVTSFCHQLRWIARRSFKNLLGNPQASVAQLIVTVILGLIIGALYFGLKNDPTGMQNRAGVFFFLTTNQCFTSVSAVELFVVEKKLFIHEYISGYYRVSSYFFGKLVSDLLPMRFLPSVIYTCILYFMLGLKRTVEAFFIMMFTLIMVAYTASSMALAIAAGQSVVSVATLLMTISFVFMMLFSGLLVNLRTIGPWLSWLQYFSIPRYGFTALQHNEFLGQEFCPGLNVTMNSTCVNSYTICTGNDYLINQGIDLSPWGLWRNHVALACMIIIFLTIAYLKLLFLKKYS

[3] = molecular target: T1, Bcrp; experiment: GF120918 inhibition of nitrofurantoin biliary excretion in SCRH
[4] = test system: P-gp; settings: 2 µM GF120918, SCRH; cited from earlier work
[5] = test system: Caco-2 cells; settings: 10 µM FTC; cited from earlier work
[6] = test system: BCRP; settings: read-out: Ki or IC50 values for BCRP; cited from earlier work
[7] = test system: sandwich-cultured rat hepatocytes (SCRH); settings: 10-min incubation; digoxin 1 µM, nitrofurantoin 5 µM
[8] = day 4 Ad-si01Bcrp-infected SCRH
[9] = day 6 Ad-si01Bcrp-infected SCRH
[10] = 2 µM GF120918, 5 µM nitrofurantoin, 10 min, day 4 SCRH
[11] = 2 µM GF120918, 5 µM nitrofurantoin, 10 min, day 4 SCRH, data not shown

O=C1CN(/N=C/c2ccc([N+](=O)[O-])o2)C(=O)N1 [nitrofurantoin]
Nitrofurantoin biliary excretion in Abcg2-knockout mice [1]: almost completely abolished
Nitrofurantoin accumulation in cells + BC versus control (Ad-siNT) ([2]; Ad-si01Bcrp-infected SCRH, 5 µM): similar
Cellular accumulation of nitrofurantoin versus control (Ad-siNT) ([2]; Ad-si01Bcrp-infected day 4 and day 6 SCRH, 5 µM): increased markedly; also recorded: significantly increased
Nitrofurantoin BEI, % of control (Ad-siNT) [2, 8]: ~ 24 % of control
Nitrofurantoin in vitro Clbiliary, % of control (Ad-siNT) [2, 8]: ~ 27 % of control
Nitrofurantoin BEI, % of control (Ad-siNT) [2, 9]: 11 % of control
Nitrofurantoin in vitro Clbiliary, % of control (Ad-siNT) [2, 9]: 14 % of control

COc1cc2c(cc1OC)CN(CCc1ccc(NC(=O)c3cccc4c(=O)c5cccc(OC)c5[nH]c34)cc1)CC2 [GF120918, N-(4-[2-(1,2,3,4-tetrahydro-6,7-dimethoxy-2-isoquinolinyl)ethyl]-phenyl)-9,10-dihydro-5-methoxy-9-oxo-4-acridine carboxamide]
Effect on cellular accumulation of nitrofurantoin [3, 10]: significantly increased
Effect on nitrofurantoin accumulation in cells + BC [3, 10]: did not affect
Nitrofurantoin BEI in presence of inhibitor, % of control [3, 11]: ~ 8 % of control
Nitrofurantoin in vitro Clbiliary in presence of inhibitor, % of control [3, 11]: ~ 8 % of control
Inhibition of nitrofurantoin biliary excretion ([3]; 2 µM GF120918, SCRH): almost completely inhibited
P-gp-mediated biliary excretion of digoxin, % of control [4]: ~ 25 % of control

COc1ccc2c3c([nH]c2c1)[C@H](C=C(C)C)N1C(=O)[C@@H]2CCCN2C(=O)[C@@H]1C3 [FTC, fumitremorgin C]
Effect on digoxin transport in Caco-2 cells [5]: inhibited
IC50 [6]: 300 to 1300 nM

C[C@H]1O[C@@H](O[C@H]2[C@@H](O)C[C@H](O[C@H]3[C@@H](O)C[C@H](O[C@H]4CC[C@@]5(C)[C@H](CC[C@@H]6[C@@H]5C[C@@H](O)[C@]5(C)[C@@H](C7=CC(=O)OC7)CC[C@]65O)C4)O[C@@H]3C)O[C@@H]2C)C[C@H](O)[C@@H]1O [digoxin]
Accumulation in cells + BC and cells, day 6 versus day 4 SCRH [7]: lower
Effect of Bcrp knockdown on digoxin accumulation (cells + BC or cells), BEI or in vitro Clbiliary ([2]; Ad-si01Bcrp-infected day 4 or day 6 SCRH, 1 µM digoxin): unaffected; also recorded: did not affect
